Experimental data as given in the NIST ThermoML archive (doi:10.1021/acs.jced.6b00688).

Assay: xn = mol fraction of the nth substance listed
Conditions: 100 kPa, Liquid; for viscosity: Falling or rolling sphere viscometry; for mass density: Vibrating tube method

CCCCCCCO [heptan-1-ol] + CC1CCCCC1
Conditions | mass density [kg/m3] | viscosity [mPa·s]
293.15 K, x2 = 0.1004 | 817.38 | 5.541
293.15 K, x2 = 0.1991 | 812.34 | 4.404
293.15 K, x2 = 0.3134 | 806.43 | 3.336
293.15 K, x2 = 0.399 | 801.91 | 2.649
293.15 K, x2 = 0.4994 | 796.51 | 2.055
293.15 K, x2 = 0.5997 | 790.98 | 1.603
293.15 K, x2 = 0.6987 | 785.57 | 1.275
293.15 K, x2 = 0.7995 | 779.94 | 1.03
293.15 K, x2 = 0.8995 | 774.56 | 0.845
298.15 K, x2 = 0.1004 | 813.81 | 4.649
298.15 K, x2 = 0.1991 | 808.71 | 3.773
298.15 K, x2 = 0.3134 | 802.7 | 2.924
298.15 K, x2 = 0.399 | 798.1 | 2.325
298.15 K, x2 = 0.4994 | 792.62 | 1.83
298.15 K, x2 = 0.5997 | 787 | 1.448
298.15 K, x2 = 0.6987 | 781.49 | 1.165
298.15 K, x2 = 0.7995 | 775.77 | 0.951
298.15 K, x2 = 0.8995 | 770.3 | 0.79
303.15 K, x2 = 0.1004 | 810.21 | 4.037
303.15 K, x2 = 0.1991 | 805.04 | 3.261
303.15 K, x2 = 0.3134 | 798.92 | 2.548
303.15 K, x2 = 0.399 | 794.25 | 2.055
303.15 K, x2 = 0.4994 | 788.68 | 1.64
303.15 K, x2 = 0.5997 | 782.98 | 1.314
303.15 K, x2 = 0.6987 | 777.38 | 1.068
303.15 K, x2 = 0.7995 | 771.56 | 0.879
303.15 K, x2 = 0.8995 | 766 | 0.736
308.15 K, x2 = 0.1004 | 806.59 | 3.484
308.15 K, x2 = 0.1991 | 801.33 | 2.838
308.15 K, x2 = 0.3134 | 795.12 | 2.235
308.15 K, x2 = 0.399 | 790.37 | 1.827
308.15 K, x2 = 0.4994 | 784.72 | 1.476
308.15 K, x2 = 0.5997 | 778.93 | 1.197
308.15 K, x2 = 0.6987 | 773.24 | 0.983
308.15 K, x2 = 0.7995 | 767.32 | 0.816
308.15 K, x2 = 0.8995 | 761.67 | 0.702
313.15 K, x2 = 0.1004 | 802.94 | 3.027
313.15 K, x2 = 0.1991 | 797.6 | 2.485
313.15 K, x2 = 0.3134 | 791.3 | 1.932
313.15 K, x2 = 0.399 | 786.47 | 1.633
313.15 K, x2 = 0.4994 | 780.73 | 1.335
313.15 K, x2 = 0.5997 | 774.85 | 1.094
313.15 K, x2 = 0.6987 | 769.07 | 0.907
313.15 K, x2 = 0.7995 | 763.06 | 0.759
313.15 K, x2 = 0.8995 | 757.31 | 0.645
318.15 K, x2 = 0.1004 | 799.26 | 2.643
318.15 K, x2 = 0.1991 | 793.83 | 2.188
318.15 K, x2 = 0.3134 | 787.42 | 1.749
318.15 K, x2 = 0.399 | 782.53 | 1.468
318.15 K, x2 = 0.4994 | 776.7 | 1.213
318.15 K, x2 = 0.5997 | 770.74 | 1.004
318.15 K, x2 = 0.6987 | 764.87 | 0.84
318.15 K, x2 = 0.7995 | 758.76 | 0.708
318.15 K, x2 = 0.8995 | 752.93 | 0.607
323.15 K, x2 = 0.1004 | 795.54 | 2.322
323.15 K, x2 = 0.1991 | 790.03 | 1.937
323.15 K, x2 = 0.3134 | 783.52 | 1.559
323.15 K, x2 = 0.399 | 778.55 | 1.324
323.15 K, x2 = 0.4994 | 772.64 | 1.106
323.15 K, x2 = 0.5997 | 766.59 | 0.924
323.15 K, x2 = 0.6987 | 760.64 | 0.779
323.15 K, x2 = 0.7995 | 754.43 | 0.662
323.15 K, x2 = 0.8995 | 748.52 | 0.572
328.15 K, x2 = 0.1004 | 791.78 | 2.05
328.15 K, x2 = 0.1991 | 786.18 | 1.723
328.15 K, x2 = 0.3134 | 779.58 | 1.396
328.15 K, x2 = 0.399 | 774.54 | 1.2
328.15 K, x2 = 0.4994 | 768.55 | 1.011
328.15 K, x2 = 0.5997 | 762.41 | 0.853
328.15 K, x2 = 0.6987 | 756.36 | 0.725
328.15 K, x2 = 0.7995 | 750.06 | 0.621
328.15 K, x2 = 0.8995 | 744.07 | 0.54
333.15 K, x2 = 0.1004 | 787.98 | 1.82
333.15 K, x2 = 0.1991 | 782.3 | 1.541
333.15 K, x2 = 0.3134 | 775.6 | 1.254
333.15 K, x2 = 0.399 | 770.5 | 1.092
333.15 K, x2 = 0.4994 | 764.42 | 0.928
333.15 K, x2 = 0.5997 | 758.17 | 0.789
333.15 K, x2 = 0.6987 | 752.05 | 0.676
333.15 K, x2 = 0.7995 | 745.66 | 0.584
333.15 K, x2 = 0.8995 | 739.59 | 0.512
